# Experimental data reported in ChEMBL document CHEMBL5728730, “Tri-substituted imidazoles for the inhibition of TGF beta and methods of treatment” (2021).
# Molecular target: T1, TGF-beta receptor type-1 (Homo sapiens, UniProt P36897)
# T1 sequence (P36897 whole entry): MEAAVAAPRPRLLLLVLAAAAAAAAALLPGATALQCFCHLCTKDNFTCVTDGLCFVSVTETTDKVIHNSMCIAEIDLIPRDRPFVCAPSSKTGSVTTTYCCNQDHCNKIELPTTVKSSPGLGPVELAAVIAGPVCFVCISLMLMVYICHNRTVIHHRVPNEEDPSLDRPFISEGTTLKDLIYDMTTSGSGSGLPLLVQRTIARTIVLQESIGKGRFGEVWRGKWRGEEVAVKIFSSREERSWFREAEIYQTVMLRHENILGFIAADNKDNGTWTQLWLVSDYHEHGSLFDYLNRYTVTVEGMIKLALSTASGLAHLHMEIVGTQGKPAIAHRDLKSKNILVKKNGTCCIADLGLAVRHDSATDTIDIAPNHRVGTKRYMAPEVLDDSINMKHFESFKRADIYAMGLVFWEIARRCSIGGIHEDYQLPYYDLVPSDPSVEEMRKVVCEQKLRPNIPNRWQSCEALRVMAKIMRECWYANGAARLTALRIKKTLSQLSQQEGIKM
# Assay: LanthaScreen™Eu Kinase Binding Assay TGFBR1 (ALK5): Exemplified compounds were screened in 1% DMSO (final concentration) by 3-fold serial dilutions from 10,000 nM to 0.316 nM to produce an IC50 or at single concentrations of 10,000, 1000 and 100 nM according to the following protocol. To low volume, white 384-well plates (Greiner Cat #784207) add 160 nL 100× compound in 100% DMSO, 3.84 uL kinase buffer (50 mM HEPES, pH 7.5, 0.01% BRIJ-35, 10 mM MgCl2, 1 mM EGTA), 8 uL 2× kinase/antibody mixture in kinase buffer (final ALK5 concentration of 5 nM; final Eu-anti-GST antibody concentration of 2 nM), 4 uL 4× Tracer #178 in kinase buffer (final concentration of 5 nM). Gently shake the plates for 30 seconds and incubate at room temperature for 1 hour before reading fluorescence on a plate reader. Percent inhibition was determined compared to DMSO only control (maximal ALK5 tracer binding) and sigmoidal dose response curve fit yielded IC50 values as indicated in Table 2.
row,IC50,Compound
1,138 nM,CC(C)n1ccc(-c2nc(CNc3cc(F)cc(C#N)c3)[nH]c2-c2ccc3nccnc3c2)n1
2,46.4 nM,CC(C)n1ccc(-c2nc(CNc3cc(F)cc(F)c3)[nH]c2-c2ccc3nccnc3c2)n1
3,< 1000 nM,CC(C)n1ccc(-c2nc(-c3ccc(C(N)=O)cc3)[nH]c2-c2ccc3ncnn3c2)n1
